For this test, the target named is T1, human orexin type 2 receptor (hOX2R) (Homo sapiens, UniProt O43614).
T1 construct: expressed in transfected cells
T1 sequence (O43614 1-444): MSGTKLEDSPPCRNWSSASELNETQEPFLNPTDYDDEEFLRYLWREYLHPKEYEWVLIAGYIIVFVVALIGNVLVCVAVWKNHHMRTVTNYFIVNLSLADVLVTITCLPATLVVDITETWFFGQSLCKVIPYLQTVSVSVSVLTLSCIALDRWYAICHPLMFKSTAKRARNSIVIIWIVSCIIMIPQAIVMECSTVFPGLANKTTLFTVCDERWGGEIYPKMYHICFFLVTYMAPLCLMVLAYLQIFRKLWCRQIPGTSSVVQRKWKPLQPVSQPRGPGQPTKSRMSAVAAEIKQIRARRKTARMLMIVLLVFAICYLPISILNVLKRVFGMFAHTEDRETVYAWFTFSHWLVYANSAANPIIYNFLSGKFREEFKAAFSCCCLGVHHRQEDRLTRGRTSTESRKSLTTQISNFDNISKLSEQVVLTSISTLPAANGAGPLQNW
Put plainly: Measurement of orexin type 2 receptor agonist activity (FLIPR calcium fluorescence). Format: cell-based. The note with it: for EC50: read-out: hOx2 pEC50 (converted); for Emax: CHO, read-out: hOx2 Emax (%). In short, it runs like this: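 Agonism was read as fluorescence in cells stably expressing human OX2R. E. is the response at 10 μM relative to orexin A as full agonist (100%).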

Where [1] appears, read: CHO cells expressing hOX2R, FLIPR calcium fluorescence.

Usually Emax stands for the greatest response seen or fitted, relative to the assay's reference.

Each structure is given as a SMILES string. Like-named read-outs stand apart in the source and are kept apart here.

With `C[C@H](CF)NC(=O)N1CC2(CC2)[C@H](NS(C)(=O)=O)[C@@H]1Cc1cccc(-c2ccccc2)c1F` [Compound 101, (6S,7S)-6-((2-fluoro-[1,1′-biphenyl]-3-yl)methyl)-N-((R)-1-fluoropropan-2-yl)-7-(methylsulfonamido)-5-azaspiro[2.4]heptane-5-carboxamide], under setting [1], the EC50 is 0.0794 to 1 nM and the Emax lay within 90 to 100%.

As for `COC[C@@H]1CCN1C(=O)N1CC2(CC2)[C@H](NS(C)(=O)=O)[C@@H]1Cc1cccc(-c2ccccc2)c1F` [Compound 102, N-((6S,7S)-6-((2-fluoro-[1,1′-biphenyl]-3-yl)methyl)-5-((S)-2-(methoxymethyl)azetidine-1-carbonyl)-5-azaspiro[2.4]heptan-7-yl)methanesulfonamide], under setting [1], the EC50 was 1 to 10 nM and the Emax lay in the range of 90 to 100%.

For `COC[C@H]1CCN1C(=O)N1CC2(CC2)[C@H](NS(C)(=O)=O)[C@@H]1Cc1cccc(-c2ccccc2)c1F` [Compound 103, N-((6S,7S)-6-((2-fluoro-[1,1′-biphenyl]-3-yl)methyl)-5-((R)-2-(methoxymethyl)azetidine-1-carbonyl)-5-azaspiro[2.4]heptan-7-yl)methanesulfonamide], under setting [1], the EC50 is 10 to 100 nM and the maximum response (Emax) lay within 90 to 100%.

For the compound `CS(=O)(=O)N[C@@H]1[C@H](Cc2cccc(-c3ccccc3)c2F)N(C(=O)NCC2(F)CC2)CC12CC2` [Compound 104, (6S,7S)-6-((2-fluoro-[1,1′-biphenyl]-3-yl)methyl)-N-((1-fluorocyclopropyl)methyl)-7-(methylsulfonamido)-5-azaspiro[2.4]heptane-5-carboxamide], under setting [1], the EC50 was 1 to 10 nM and the Emax is 90 to 100%.

For `CS(=O)(=O)N[C@@H]1[C@H](Cc2cccc(-c3ccccc3F)c2F)N(C(=O)[C@H]2CCO2)CC12CC2` [Compound 107, N-((6S,7S)-6-((2,2′-difluoro-[1,1′-biphenyl]-3-yl)methyl)-5-((R)-oxetane-2-carbonyl)-5-azaspiro[2.4]heptan-7-yl)methanesulfonamide], under setting [1], the EC50 was 1 to 10 nM and the Emax lay within 90 to 100%.

As for `CN(C)C(=O)N1CC2(CC2)[C@H](NS(C)(=O)=O)[C@@H]1Cc1cccc(-c2ccccc2)c1F` [Compound 110, (6S,7S)-6-((2-fluoro-[1,1′-biphenyl]-3-yl)methyl)-N,N-dimethyl-7-(methylsulfonamido)-5-azaspiro[2.4]heptane-5-carboxamide], the maximum response (Emax) is 90 to 100%. In addition, the EC50 under setting [1] is 0.0794 to 1 nM.

With `CCCNC(=O)N1CC2(CC2)[C@H](NS(C)(=O)=O)[C@@H]1Cc1cccc(-c2ccccc2)c1F` [Compound 111, (6S,7S)-6-((2-fluoro-[1,1′-biphenyl]-3-yl)methyl)-7-(methylsulfonamido)-N-propyl-5- .azaspiro[2.4]heptane-5-carboxamide], under setting [1], the EC50 is 1 to 10 nM and the Emax lay in the range of 90 to 100%.

As for `CS(=O)(=O)N[C@@H]1[C@H](Cc2cccc(-c3ccccc3)c2F)N(C(=O)NCC(F)F)CC12CC2` [Compound 112, (6S,7S)-N-(2,2-difluoroethyl)-6-((2-fluoro-[1,1′-biphenyl]-3-yl)methyl)-7-(methylsulfonamido)-5-azaspiro[2.4]heptane-5-carboxamide], under setting [1], the EC50 was 0.0794 to 1 nM and the Emax is 90 to 100%.

Regarding `CS(=O)(=O)N[C@@H]1[C@H](Cc2cccc(-c3ccccc3)c2)N(C(=O)C23CC2C3)CC12CC2` (stereo partly drawn) [Compound 113, N-((6S,7S)-6-([1,1′-biphenyl]-3-ylmethyl)-5-(bicyclo[1.1.0]butane-1-carbonyl)-5-azaspiro[2.4]heptan-7-yl)methanesulfonamide], under setting [1], the EC50 is 1 to 10 nM and the maximal effect (Emax) fell in the range of 90 to 100%.

For `CC(C)S(=O)(=O)N[C@@H]1[C@H](Cc2cccc(-c3ccccc3)c2)N(C(=O)[C@H]2CCO2)CC12CC2` [Compound 114, N-((6S,7S)-6-([1,1′-biphenyl]-3-ylmethyl)-5-((R)-oxetane-2-carbonyl)-5-azaspiro[2.4]heptan-7-yl)propane-2-sulfonamide], under setting [1], the EC50 was 1 to 10 nM and the Emax is 80 to 90%.

As to `O=C([C@H]1CCO1)N1CC2(CC2)[C@H](NS(=O)(=O)C(F)F)[C@@H]1Cc1cccc(-c2ccccc2)c1` [Compound 115, N-((6S,7S)-6-([1,1′-biphenyl]-3-ylmethyl)-5-((R)-oxetane-2-carbonyl)-5-azaspiro[2.4]heptan-7-yl)-1,1-difluoromethanesulfonamide], the Emax fell in the range of 90 to 100%. The EC50 under setting [1] was 1 to 10 nM.

As for `CN(C)S(=O)(=O)N[C@@H]1[C@H](Cc2cccc(-c3ccccc3)c2F)N(C(=O)N2CCC2)CC12CC2` [Compound 116, N-((6S,7S)-5-(azetidine-1-carbonyl)-6-((2-fluoro-[1,1′-biphenyl]-3-yl)methyl)-5-azaspiro[2.4]heptan-7-yl)-N,N-dimethylsulfuric diamide], the Emax is 90 to 100%. Under setting [1], the EC50 is 0.0794 to 1 nM.

Take `CN(C)S(=O)(=O)N[C@@H]1[C@H](Cc2cccc(-c3ccccc3)c2F)N(C(=O)N2CC(F)C2)CC12CC2` [Compound 117, N-((6S,7S)-6-((2-fluoro-[1,1′-biphenyl]-3-yl)methyl)-5-(3-fluoroazetidine-1-carbonyl)-5-azaspiro[2.4]heptan-7-yl)-N,N-dimethylsulfuric diamide]: under setting [1], the EC50 was 0.0794 to 1 nM and the Emax was in the range of 90 to 100%.

Consider `COC1CN(C(=O)N2CC3(CC3)[C@H](NS(=O)(=O)N(C)C)[C@@H]2Cc2cccc(-c3ccccc3)c2F)C1` [Compound 118, N-((6S,7S)-6-((2-fluoro-[1,1′-biphenyl]-3-yl)methyl)-5-(3-methoxyazetidine-1-carbonyl)-5-azaspiro[2.4]heptan-7-yl)-N,N-dimethylsulfuric diamide], for which, under setting [1], the EC50 was 1 to 10 nM and the Emax was 90 to 100%.

For `CN(C)S(=O)(=O)N[C@@H]1[C@H](Cc2cccc(-c3ccccc3)c2F)N(C(=O)[C@H](O)C(F)(F)F)CC12CC2` [Compound 119, N-((6S,7S)-6-((2-fluoro-[1,1′-biphenyl]-3-yl)methyl)-5-((S)-3,3,3-trifluoro-2-hydroxypropanoyl)-5-azaspiro[2.4]heptan-7-yl)-N,N-dimethylsulfuric diamide], under setting [1], the EC50 was 0.0794 to 1 nM and the Emax is 90 to 100%.

Turning to `CN(C)S(=O)(=O)N[C@@H]1[C@H](Cc2cccc(-c3ccccc3)c2F)N(C(=O)C2(O)CCC2)CC12CC2` [Compound 120, N-((6S,7S)-6-((2-fluoro-[1,1′-biphenyl]-3-yl)methyl)-5-(1-hydroxycyclobutane-1-carbonyl)-5-azaspiro[2.4]heptan-7-yl)-N,N-dimethylsulfuric diamide], under setting [1], the EC50 is 0.0794 to 1 nM and the Emax lay in the range of 90 to 100%.

As to `CCNC(=O)N1CC2(CC2)[C@H](NS(=O)(=O)N(C)C)[C@@H]1Cc1cccc(-c2ccccc2)c1F` [Compound 121], under setting [1], the EC50 is 0.0794 to 1 nM and the Emax fell in the range of 90 to 100%.

As for `CS(=O)(=O)N[C@@H]1[C@H](Cc2cc(F)cc(-c3cccc(F)c3)c2F)N(C(=O)[C@H]2CCO2)CC12CC2` [Compound 122, N-((6S,7S)-5-((R)-oxetane-2-carbonyl)-6-((2,3′,5-trifluoro-[1,1′-biphenyl]-3-yl)methyl)-5-azaspiro[2.4]heptan-7-yl)methanesulfonamide], under setting [1], the EC50 is 0.0794 to 1 nM and the Emax is 90 to 100%.

Take `O=C([C@H]1CCO1)N1CC2(CC2)[C@H](NS(=O)(=O)CF)[C@@H]1Cc1cc(F)cc(-c2cccc(F)c2)c1F` [Compound 123, 1-fluoro-N-((6S,7S)-5-((R)-oxetane-2-carbonyl)-6-((2,3′,5-trifluoro-[1,1′-biphenyl]-3-yl)methyl)-5-azaspiro[2.4]heptan-7-yl)methanesulfonamide]: under setting [1], the EC50 was 0.0794 to 1 nM and the Emax fell in the range of 90 to 100%.

On to `CN(C)S(=O)(=O)N[C@@H]1[C@H](Cc2cc(F)cc(-c3cccc(F)c3)c2F)N(C(=O)[C@H]2CCO2)CC12CC2` [Compound 124, 1-fluoro-N-((6S,7S)-5-((R)-oxetane-2-carbonyl)-6-((2,3′,5-trifluoro-[1,1′-biphenyl]-3-yl)methyl)-5-azaspiro[2.4]heptan-7-yl)-N,N-dimethylsulfuric diamide], for which, under setting [1], the EC50 is 0.0794 to 1 nM and the Emax lay within 80 to 90%.

As to `O=C([C@H]1CCO1)N1CC2(CC2)[C@H](NS(=O)(=O)CF)[C@@H]1Cc1cccc(-c2cccc(F)c2)c1F` [Compound 132, N-((6S,7S)-6-((2,3′-dfluoro-1,1′-biphenyl-3-yl)methyl)-5-((R)-oxetane-2-carbonyl)-5-azaspiro[2.4]heptan-7-yl)-1-fluoromethanesulfonamide], under setting [1], the EC50 is 0.0794 to 1 nM and the Emax is 90 to 100%.

With `CC(C)(O)C(=O)N1CC2(CC2)[C@H](NS(=O)(=O)CF)[C@@H]1Cc1cccc(-c2ccccc2)c1F` [Compound 134, 1-fluoro-N-((6S,7S)-6-((2-fluoro-[1,1′-biphenyl]-3-yl)methyl)-5-(2-hydroxy-2-methylpropanoyl)-5-azaspiro[2.4]heptan-7-yl)methanesulfonamide], under setting [1], the EC50 is 1 to 10 nM and the Emax was in the range of 90 to 100%.

The values above are taken from patent US12503475B2 (Centessa Pharmaceuticals (UK) Limited, priority 2020, dated 2025).
